Active and inactive are the calls of the source. No cut-off for these calls is given here.
Legend:
SH-SY5Y = experiment: Protection against amyloid beta oligomer-induced cytotoxicity in human SH-SY5Y cells expressing wild-type Tau assessed as cell viability at 10 uM by MTT assay; type: functional; conditions: read-out: Activity
Acetylcholinesterase [1] = molecular target: T1, Acetylcholinesterase (Homo sapiens, UniProt P22303); experiment: Binding affinity to AChE (unknown origin) assessed as dissociation constant by SPR analysis
T1 sequence (P22303 whole entry): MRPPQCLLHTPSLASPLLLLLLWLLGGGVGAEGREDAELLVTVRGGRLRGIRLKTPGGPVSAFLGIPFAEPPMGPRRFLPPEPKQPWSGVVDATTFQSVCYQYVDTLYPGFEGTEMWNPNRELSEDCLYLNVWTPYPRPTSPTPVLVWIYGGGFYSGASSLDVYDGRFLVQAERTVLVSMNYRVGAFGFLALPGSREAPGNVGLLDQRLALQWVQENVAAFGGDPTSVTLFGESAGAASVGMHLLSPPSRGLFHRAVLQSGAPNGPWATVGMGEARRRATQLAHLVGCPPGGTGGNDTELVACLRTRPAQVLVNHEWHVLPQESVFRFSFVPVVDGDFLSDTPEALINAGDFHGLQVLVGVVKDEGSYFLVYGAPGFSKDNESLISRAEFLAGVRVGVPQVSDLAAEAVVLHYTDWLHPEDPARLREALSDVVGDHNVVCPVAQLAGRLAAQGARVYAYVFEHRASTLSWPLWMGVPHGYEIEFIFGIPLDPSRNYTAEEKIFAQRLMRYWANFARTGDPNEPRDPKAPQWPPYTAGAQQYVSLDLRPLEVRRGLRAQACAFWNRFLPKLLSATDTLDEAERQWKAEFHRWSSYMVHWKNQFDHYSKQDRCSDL

HEL 299 = experiment: Cytotoxicity against HEL 299 cells by MTT assay; type: cell-based; conditions: human
[2] = Permeability in human Caco-2 cells; type: ADME, cell-based
[3] = Stability of compound in intestinal juice
[4] = Metabolic stability in human plasma; type: ADME, cell-free
[5] = Permeability of compound by PAMPA-BBB assay
[6] = Stability of compound in gastric fluid; type: physicochemical; conditions: simulated gi fluid
[7] = molecular target: T2, Microtubule-associated protein tau (Homo sapiens, UniProt P10636); experiment: Binding affinity to tau (unknown origin) assessed as dissociation constant by microscale thermophoresis assay
T2 sequence (P10636 whole entry): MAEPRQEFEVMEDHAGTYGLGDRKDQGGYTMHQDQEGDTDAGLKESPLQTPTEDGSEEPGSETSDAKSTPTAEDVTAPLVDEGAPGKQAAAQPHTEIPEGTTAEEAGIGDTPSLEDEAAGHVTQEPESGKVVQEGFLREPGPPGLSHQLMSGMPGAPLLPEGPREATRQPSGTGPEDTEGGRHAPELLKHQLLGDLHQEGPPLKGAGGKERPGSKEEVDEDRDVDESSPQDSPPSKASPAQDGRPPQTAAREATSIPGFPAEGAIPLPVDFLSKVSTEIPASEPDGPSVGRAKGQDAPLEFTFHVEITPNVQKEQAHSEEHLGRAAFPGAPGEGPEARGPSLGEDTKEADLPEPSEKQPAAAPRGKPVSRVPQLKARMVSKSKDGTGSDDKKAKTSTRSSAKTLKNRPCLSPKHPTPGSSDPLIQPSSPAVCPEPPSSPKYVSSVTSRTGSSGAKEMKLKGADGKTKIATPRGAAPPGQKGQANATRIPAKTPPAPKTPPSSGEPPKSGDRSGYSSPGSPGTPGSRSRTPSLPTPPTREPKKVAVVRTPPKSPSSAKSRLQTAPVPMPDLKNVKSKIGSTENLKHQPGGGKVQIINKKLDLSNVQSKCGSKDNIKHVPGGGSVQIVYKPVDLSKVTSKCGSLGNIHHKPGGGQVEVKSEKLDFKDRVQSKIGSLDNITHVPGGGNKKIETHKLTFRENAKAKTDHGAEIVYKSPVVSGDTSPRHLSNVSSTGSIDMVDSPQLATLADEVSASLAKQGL

[8] = molecular target: T2, Microtubule-associated protein tau; experiment: Binding affinity to tau (unknown origin) assessed as dissociation constant by isothermal titration calorimetry
[9] = molecular target: T2, Microtubule-associated protein tau; experiment: Binding affinity to tau (unknown origin) assessed as exothermal interaction by isothermal titration calorimetry
[10] = molecular target: T2, Microtubule-associated protein tau; experiment: Binding affinity to tau (unknown origin) assessed as dissociation constant by SPR analysis
[11] = molecular target: T2, Microtubule-associated protein tau; experiment: Inhibition of tau oligomerization in human […] cells by TR-FRET assay; type: cell-based
Acetylcholinesterase [12] = molecular target: T1, Acetylcholinesterase; experiment: Mixed inhibition of AChE (unknown origin) using acetylthiocholine iodide as substrate by UV-vis spectrophotometry based Lineweaver-burk plot analysis
Acetylcholinesterase [13] = molecular target: T1, Acetylcholinesterase; experiment: Inhibition of AChE (unknown origin) using acetylthiocholine iodide as substrate by UV-vis spectrophotometry based Ellman's method

CN(C)c1ccc2c(c1)Sc1cc(N(C)C)ccc1N2 [HYDROMETHYLTHIONINE]
viability at 10 µM (SH-SY5Y): 32.1%

Nc1c2c(nc3ccccc13)CCCC2 [TACRINE]
viability at 10 µM (SH-SY5Y): 29.5%

COc1cc2c(cc1OC)C(=O)C(CC1CCN(Cc3ccccc3)CC1)C2 (centres undefined) [DONEPEZIL]
viability at 10 µM (SH-SY5Y): 39.3%

CCn1cc(CNCc2c[nH]nc2-c2ccc(-c3ccccc3)cc2)cn1
Kd (Acetylcholinesterase [1]): 1410 nM
Activity (HEL 299): Non-Toxic
permeability [2]: Permeable
Stability [3]: Stable
Stabilty [4]: Stable
Papp [5]: 33.5 ×10⁻⁶ cm/s
Stabilty [6]: Stable
viability at 10 µM (SH-SY5Y): 75.1%
Kd [7]: 920 nM
Kd [8]: 860 nM
deltaH [9]: -36.9 kcal/mol
Kd [10]: 590 nM
EC50 [11]: 250 nM
inhibition (Acetylcholinesterase [12]): Active
IC50 (Acetylcholinesterase [13]): 350 nM

CC(C)c1ccc2c(c1)c(SC(C)(C)C)c(CC(C)(C)C(=O)O)n2Cc1ccc(Cl)cc1
viability at 10 µM (SH-SY5Y): 52.4%

— ChEMBL document CHEMBL4665727, “Discovery of biphenyl pyrazole scaffold for neurodegenerative diseases: A novel class of acetylcholinesterase-centered multitargeted ligands” (Bioorg Med Chem Lett, 2020)
